Laboratory results published in ChEMBL document CHEMBL1201862, “PubChem BioAssay data set” (2004).
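In this assay, cells in 96-well plates receive the compound at five concentrations for 48 hours. Endpoints are linearly interpolated between the surrounding concentrations. Abbreviation: GI50, concentration required for 50% inhibition of growth.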 Calls of active or inactive are those of the source. Rule as the data show it: active = GI50 up to about 1.1 µM and inactive = higher.

Key:
Experiment in all cases: inhibition of tumour cell growth, NCI panel, 48 h
ACHN = tested on: ACHN
SF-539 = tested on: SF-539
A549 = tested on: A549
NCI-H226 = tested on: NCI-H226
HOP-62 = tested on: HOP-62
NCI/ADR-RES = tested on: NCI/ADR-RES
MCF7 = tested on: MCF7
MDA-MB-435 = tested on: MDA-MB-435
IGROV-1 = tested on: IGROV-1
RXF 393 = tested on: RXF 393
SN12C = tested on: SN12C
SF-295 = tested on: SF-295
NCI-H23 = tested on: NCI-H23
PC-3 = tested on: PC-3
HOP-92 = tested on: HOP-92
SNB-19 = tested on: SNB-19
Malme-3M = tested on: Malme-3M
SF-268 = tested on: SF-268
COLO 205 = tested on: COLO 205
U-251 = tested on: U-251
DU-145 = tested on: DU-145
HT-29 = tested on: HT-29
OVCAR-5 = tested on: OVCAR-5
SR = tested on: SR
RPMI-8226 = tested on: RPMI-8226
EKVX = tested on: EKVX
BT-549 = tested on: BT-549
LOX IMVI = tested on: LOX IMVI
SK-MEL-28 = tested on: SK-MEL-28
SK-MEL-5 = tested on: SK-MEL-5
A498 = tested on: A498
OVCAR-8 = tested on: OVCAR-8
HCC 2998 = tested on: HCC 2998
HCT-15 = tested on: HCT-15
KM12 = tested on: KM12
HCT-116 = tested on: HCT-116
SK-OV-3 = tested on: SK-OV-3
UACC-62 = tested on: UACC-62
SW-620 = tested on: SW-620
NCI-H522 = tested on: NCI-H522
NCI-H460 = tested on: NCI-H460
MOLT-4 = tested on: MOLT-4
MDA-MB-231 = tested on: MDA-MB-231
Hs-578T = tested on: Hs-578T
CCRF-CEM = tested on: CCRF-CEM
UO-31 = tested on: UO-31
SNB-75 = tested on: SNB-75
OVCAR-3 = tested on: OVCAR-3
CAKI-1 = tested on: CAKI-1
SK-MEL-2 = tested on: SK-MEL-2
OVCAR-4 = tested on: OVCAR-4
T47D = tested on: T47D
M14 = tested on: M14
K562 = tested on: K562
UACC-257 = tested on: UACC-257
TK-10 = tested on: TK-10
786-0 = tested on: 786-0
HL-60 = tested on: HL-60

In the case of `CC12CN(CC[N+](C)(C)C)CC1(C)C1CCC2O1` (stereo not drawn), the GI50 (ACHN) is reported as > 100 µM (inactive), the GI50 (SF-539) is reported as > 100 µM (inactive) and the GI50 (A549) is reported as > 100 µM (inactive). The GI50 (NCI-H226) was > 100 µM (inactive), the GI50 (HOP-62) was > 100 µM (inactive) and the GI50 (NCI/ADR-RES) was > 100 µM (inactive). The GI50 (MCF7) was > 100 µM (inactive), the GI50 (MDA-MB-435) was > 100 µM (inactive) and the GI50 (IGROV-1) was > 100 µM (inactive). The GI50 (RXF 393) was > 100 µM (inactive), the GI50 (SN12C) was > 100 µM (inactive) and the GI50 (SF-295) was > 100 µM (inactive). The GI50 (NCI-H23) was > 100 µM (inactive), the GI50 (PC-3) was > 100 µM (inactive) and the GI50 (HOP-92) was > 100 µM (inactive). The GI50 (SNB-19) was > 100 µM (inactive), the GI50 (Malme-3M) was > 100 µM (inactive) and the GI50 (SF-268) was > 100 µM (inactive). For the same molecule, the GI50 (COLO 205) was > 100 µM (inactive), the GI50 (U-251) was > 100 µM (inactive) and the GI50 (DU-145) was > 100 µM (inactive). The GI50 (HT-29) was > 100 µM (inactive), the GI50 (OVCAR-5) was > 100 µM (inactive) and the GI50 (SR) was > 100 µM (inactive). The GI50 (RPMI-8226) was > 100 µM (inactive), the GI50 (EKVX) was > 100 µM (inactive) and the GI50 (BT-549) was > 100 µM (inactive). For the same molecule, the GI50 (LOX IMVI) was > 100 µM (inactive), the GI50 (SK-MEL-28) was > 100 µM (inactive) and the GI50 (SK-MEL-5) was > 100 µM (inactive). For the same molecule, the GI50 (A498) was > 100 µM (inactive), the GI50 (OVCAR-8) was > 100 µM (inactive) and the GI50 (HCC 2998) was > 100 µM (inactive). For the same molecule, the GI50 (HCT-15) was greater than 100 µM, the GI50 (KM12) was > 100 µM (inactive) and the GI50 (HCT-116) was > 100 µM (inactive). For the same molecule, the GI50 (SK-OV-3) was > 100 µM (inactive), the GI50 (UACC-62) was > 100 µM (inactive) and the GI50 (SW-620) was > 100 µM (inactive). For the same molecule, the GI50 (NCI-H522) was > 100 µM (inactive), the GI50 (NCI-H460) was > 100 µM (inactive) and the GI50 (MOLT-4) was > 100 µM (inactive). For the same molecule, the GI50 (MDA-MB-231) was > 100 µM (inactive), the GI50 (Hs-578T) was > 100 µM (inactive) and the GI50 (CCRF-CEM) was > 100 µM (inactive). For the same molecule, the GI50 (UO-31) was > 100 µM (inactive), the GI50 (SNB-75) was > 100 µM (inactive) and the GI50 (OVCAR-3) was > 100 µM (inactive). The GI50 (CAKI-1) was > 100 µM (inactive), the GI50 (SK-MEL-2) was > 100 µM (inactive) and the GI50 (OVCAR-4) was > 100 µM (inactive). For the same molecule, the GI50 (T47D) was > 100 µM (inactive), the GI50 (M14) was > 100 µM (inactive) and the GI50 (K562) was > 100 µM (inactive). The GI50 (UACC-257) was > 100 µM (inactive), the GI50 (TK-10) was > 100 µM (inactive) and the GI50 (786-0) was > 100 µM (inactive).
For `CC(C)CCCC(C)[C@H]1CC[C@H]2[C@@H]3CC[C@H]4C[C@@H](CCC=C(c5cc(Cl)c(O)c(C(=O)O)c5)c5cc(Cl)c(O)c(C(=O)O)c5)CC[C@]4(C)[C@H]3CC[C@]12C` (stereo partly drawn), the GI50 (ACHN) was > 50 µM (inactive), the GI50 (SF-539) was > 50 µM (inactive) and the GI50 (A549) was > 50 µM (inactive). The GI50 (NCI-H226) was > 50 µM (inactive), the GI50 (HOP-62) was > 50 µM (inactive) and the GI50 (NCI/ADR-RES) was > 50 µM (inactive). For the same molecule, the GI50 (MCF7) was > 50 µM (inactive), the GI50 (MDA-MB-435) was > 50 µM (inactive) and the GI50 (IGROV-1) was > 50 µM (inactive). The GI50 (RXF 393) was > 50 µM (inactive), the GI50 (SN12C) was > 50 µM (inactive) and the GI50 (HL-60) was > 50 µM (inactive). For the same molecule, the GI50 (SF-295) was > 50 µM (inactive), the GI50 (NCI-H23) was > 50 µM (inactive) and the GI50 (PC-3) was > 50 µM (inactive). For the same molecule, the GI50 (HOP-92) was > 50 µM (inactive), the GI50 (SNB-19) was > 50 µM (inactive) and the GI50 (Malme-3M) was > 50 µM (inactive). For the same molecule, the GI50 (SF-268) was > 50 µM (inactive), the GI50 (COLO 205) was > 50 µM (inactive) and the GI50 (U-251) was > 50 µM (inactive). The GI50 (DU-145) was > 50 µM (inactive), the GI50 (HT-29) was > 50 µM (inactive) and the GI50 (OVCAR-5) was > 50 µM (inactive). The GI50 (RPMI-8226) was > 50 µM (inactive), the GI50 (EKVX) was > 50 µM (inactive) and the GI50 (BT-549) was > 50 µM (inactive). For the same molecule, the GI50 (LOX IMVI) was > 50 µM (inactive), the GI50 (SK-MEL-28) was > 50 µM (inactive) and the GI50 (SK-MEL-5) was 28.8 µM (inactive). The GI50 (A498) was > 50 µM (inactive), the GI50 (OVCAR-8) was > 50 µM (inactive) and the GI50 (HCC 2998) was > 50 µM (inactive). For the same molecule, the GI50 (HCT-15) was 36.1 µM, the GI50 (KM12) was > 50 µM (inactive) and the GI50 (HCT-116) was > 50 µM (inactive). For the same molecule, the GI50 (SK-OV-3) was > 50 µM (inactive), the GI50 (UACC-62) was > 50 µM (inactive) and the GI50 (SW-620) was > 50 µM (inactive). For the same molecule, the GI50 (NCI-H522) was > 50 µM (inactive), the GI50 (NCI-H460) was 25.4 µM (inactive) and the GI50 (MOLT-4) was > 50 µM (inactive). For the same molecule, the GI50 (MDA-MB-231) was > 50 µM (inactive), the GI50 (Hs-578T) was > 50 µM (inactive) and the GI50 (CCRF-CEM) was > 50 µM (inactive). For the same molecule, the GI50 (UO-31) was 6.03 µM (inactive), the GI50 (SNB-75) was > 50 µM (inactive) and the GI50 (OVCAR-3) was > 50 µM (inactive). For the same molecule, the GI50 (CAKI-1) was > 50 µM (inactive), the GI50 (SK-MEL-2) was > 50 µM (inactive) and the GI50 (OVCAR-4) was > 50 µM (inactive). For the same molecule, the GI50 (T47D) was > 50 µM (inactive), the GI50 (M14) was > 50 µM (inactive) and the GI50 (K562) was 31.1 µM (inactive). The GI50 (TK-10) was > 50 µM (inactive) and the GI50 (786-0) was 32.2 µM (inactive).
